Data: US12065434B2, “Metabolites of GLP1R agonists” (Pfizer Inc., priority 2020, dated 2024)

Experiments:
mouse hepatocytes = assay: In vitro metabolism of Compound 2 in mouse cryopreserved hepatocytes; type: in vitro ADME; design: key to Relative abundance of metabolite of Compound 2, Mouse: ND Not detected.; trace: Trace: observed by HPLC/MS measurements only.; + Minor as assessed by HPLC/UV measurements; ++ moderate as assessed by HPLC/UV measurements; +++ major as assessed by HPLC/UV measurements.; * m/z 593 and m/z 505 co-eluted in rabbit hepatocytes.; ** m/z 591 c and m/z 593 were merged in human hepatocytes and Hepatopack.; *** m/z 607 and m/z 751 b were merged in rabbit hepatocytes; details: for metabolite of Compound 2 observed in mouse hepatocyte incubations: 10 μM Compound 2, 7.5×10^5 cells/mL, 1 and 4 hrs composite; for Relative abundance of metabolite of Compound 2, Mouse: mouse cryopreserved hepatocytes, HPLC/UV/MS
Procedure: (§1) Male CD-1 mouse hepatocytes (lot YHL), male Wistar-Han rat hepatocytes (Celsius; product number: M000065; lot: SLA), female New Zealand rabbit hepatocytes (lot 1510147), male cryopreserved cynomolgus monkey hepatocytes (Celsius; product number: M00305; lot: DNB) and mixed-gender cryopreserved human hepatocytes (Bioreclamation; product number: S01988; lot: DCM) were obtained for the hepatocyte in-vitro assessments.
(§2) At time 0 hrs 550 μL aliquots were removed from incubations and quenched with 5 volumes of ACN containing 0.1% formic acid. At 1 and 4 hrs, 275 μL aliquots were removed and quenched as above; these were combined in the same tube to prepare a composite sample. For all hepatocyte experiments, samples were processed by centrifugation at 1900×g for 5 minutes, and then the supernatant was transferred to clean glass tubes and evaporated to dryness under a stream of N2 using a Turbovap at 37° C. Sample residues were reconstituted in mobile phase prior to analysis by HPLC/UV/MS^n.
(§3) Samples were analyzed by HPLC/UV/MS^n using a Thermo Orbitrap Elite mass spectrometer in conjunction with a Thermo Open Accela UHPLC system. A 3.0×150 mm, 2.5 μm Acquity CSH C18 HPLC column (Waters) was heated to 45° C. for separation of analytes. The mobile phase was a gradient of A): water containing 0.1% formic acid, and B): acetonitrile. The flow rate was 450 μL/min, and the following gradient program was utilized: […]
(§4) UV absorbance was monitored with a photo-diode array detector from 220-450 nm. The mass spectrometer was operated in positive-ion mode with a HESI ion source at a potential of 3.0 kV, and capillary and source heater temperatures of 380 and 300° C., respectively. Sheath, auxiliary, and sweep gas flows were set to 45, 10, and 2 units, respectively. Full scan mass spectra were acquired over the range 120-1200 m/z at a resolving power of 30,000 (specified at m/z 400). Data-dependent MS^n spectra were acquired in an automated fashion at 15,000 resolving power using CID and HCD fragmentation with normalized collision energy settings of 28 and 65 V, respectively.
(§5) Metabolites were characterized by comparisons of mass spectral fragmentation patterns with that of a Compound 2 standard. All HPLC/UV/MS^n data were processed using Xcalibur v. 2.2, and integrated UV peak areas were subjected to weighted UV binning procedures utilizing an Excel template.

rat hepatocytes = assay: In vitro metabolism of Compound 2 in rat cryopreserved hepatocytes; type: in vitro ADME; design: key to Relative abundance of metabolite of Compound 2, Rat: ND Not detected.; trace: Trace: observed by HPLC/MS measurements only.; + Minor as assessed by HPLC/UV measurements; ++ moderate as assessed by HPLC/UV measurements; +++ major as assessed by HPLC/UV measurements.; * m/z 593 and m/z 505 co-eluted in rabbit hepatocytes.; ** m/z 591 c and m/z 593 were merged in human hepatocytes and Hepatopack.; *** m/z 607 and m/z 751 b were merged in rabbit hepatocytes; details: for metabolite of Compound 2 observed in rat hepatocyte incubations: 10 μM Compound 2, 7.5×10^5 cells/mL, 1 and 4 hrs composite; for Relative abundance of metabolite of Compound 2, Rat: rat cryopreserved hepatocytes, HPLC/UV/MS
Procedure: as §1, §2, §3, §4, §5

monkey hepatocytes = assay: In vitro metabolism of Compound 2 in monkey cryopreserved hepatocytes; type: in vitro ADME, cynomolgus monkey; design: key to Relative abundance of metabolite of Compound 2, Monkey: ND Not detected.; trace: Trace: observed by HPLC/MS measurements only.; + Minor as assessed by HPLC/UV measurements; ++ moderate as assessed by HPLC/UV measurements; +++ major as assessed by HPLC/UV measurements.; * m/z 593 and m/z 505 co-eluted in rabbit hepatocytes.; ** m/z 591 c and m/z 593 were merged in human hepatocytes and Hepatopack.; *** m/z 607 and m/z 751 b were merged in rabbit hepatocytes; details: for metabolite of Compound 2 observed in monkey hepatocyte incubations: 10 μM Compound 2, 7.5×10^5 cells/mL, 1 and 4 hrs composite; for Relative abundance of metabolite of Compound 2, Monkey: monkey cryopreserved hepatocytes, HPLC/UV/MS
Procedure: as §1, §2, §3, §4, §5

human hepatocytes = assay: In vitro metabolism of Compound 2 in human cryopreserved hepatocytes; type: in vitro ADME; design: key to Relative abundance of metabolite of Compound 2, Human: ND Not detected.; trace: Trace: observed by HPLC/MS measurements only.; + Minor as assessed by HPLC/UV measurements; ++ moderate as assessed by HPLC/UV measurements; +++ major as assessed by HPLC/UV measurements.; * m/z 593 and m/z 505 co-eluted in rabbit hepatocytes.; ** m/z 591 c and m/z 593 were merged in human hepatocytes and Hepatopack.; *** m/z 607 and m/z 751 b were merged in rabbit hepatocytes; details: for metabolite of Compound 2 observed in human hepatocyte incubations: 10 μM Compound 2, 7.5×10^5 cells/mL, 1 and 4 hrs composite; for Relative abundance of metabolite of Compound 2, Human: human cryopreserved hepatocytes, HPLC/UV/MS
Procedure: as §1, §2, §3, §4, §5

rabbit hepatocytes = assay: In vitro metabolism of Compound 2 in rabbit cryopreserved hepatocytes; type: in vitro ADME; design: key to Relative abundance of metabolite of Compound 2, Rabbit: ND Not detected.; trace: Trace: observed by HPLC/MS measurements only.; + Minor as assessed by HPLC/UV measurements; ++ moderate as assessed by HPLC/UV measurements; +++ major as assessed by HPLC/UV measurements.; * m/z 593 and m/z 505 co-eluted in rabbit hepatocytes.; ** m/z 591 c and m/z 593 were merged in human hepatocytes and Hepatopack.; *** m/z 607 and m/z 751 b were merged in rabbit hepatocytes; details: for metabolite of Compound 2 observed in rabbit hepatocyte incubations: 10 μM Compound 2, 7.5×10^5 cells/mL, 1 and 4 hrs composite; for Relative abundance of metabolite of Compound 2, Rabbit: rabbit cryopreserved hepatocytes, HPLC/UV/MS
Procedure: as §1, §2, §3, §4, §5

[1] = system: human co-cultured hepatocytes (Hepatopack); assay: In vitro metabolism of Compound 2 in human micropatterned co-cultured hepatocytes (Hepatopack); type: in vitro ADME; design: key to Relative abundance of metabolite of Compound 2, Hepatopack: ND Not detected.; trace: Trace: observed by HPLC/MS measurements only.; + Minor as assessed by HPLC/UV measurements; ++ moderate as assessed by HPLC/UV measurements; +++ major as assessed by HPLC/UV measurements.; * m/z 593 and m/z 505 co-eluted in rabbit hepatocytes.; ** m/z 591 c and m/z 593 were merged in human hepatocytes and Hepatopack.; *** m/z 607 and m/z 751 b were merged in rabbit hepatocytes; details: human co-cultured hepatocytes (Hepatopack); HPLC/UV/MS
Description: Micro-patterned co-cultured (MPCC) hepatocyte 24-well plates containing human donors (16 wells each) were provided by Ascendance Biotechnology (formerly Hepregen Corp. (Medford, MA). [see Wang W W W, Khetani S R, Krzyzewski S, et al. Assessment of a Micropatterned Hepatocyte Coculture System to Generate Major Human Excretory and Circulating Drug Metabolites. Drug Metab Dispos 2010; 38(10):1900-5.] The MPCCs were created at Ascendance Biotechnology and maintained in serum containing medium for 5-6 days to allow for stabilization of the co-cultures prior to shipment. A mixed-gender cryopreserved pool of 10 human donors (X008001-P; lot YFA) was used to seed the plates and was purchased from BioreclamationIVT (Westbury, NY). MPCC hepatocytes are plated with fibroblasts in a 1:3 ratio with ˜25,000 hepatocytes/well in a 24-well plate. 24-Well MPCC plates were shipped to Pfizer, fresh medium (400 μL/well) was applied and cultures were kept at 37° C. with […] and 95% relative humidity for two days. Micropatterned co-cultures containing pooled hepatocytes were allowed 7 days to fully stabilize with respect to liver-specific functions. […] At respective time points (0, 2, and 7 days), the culture medium was removed and mixed with 4 volumes of ACN, then stored frozen at −40° C. until samples could be analyzed. Samples were subsequently processed by the addition of 2.5 mL of 1:1 ACN:MeOH containing 0.1% formic acid. After vortexing, the samples were centrifuged at 1900×g for 5 min, then the supernatant was transferred to 15 mL conical tubes and evaporated under N2 using a Turbovap set at 37° C. The residues were reconstituted in mobile phase (5:95 v:v ACN:0.1% aqueous formic acid) prior to analysis by HPLC/UV/MS^n.
as §3
as §4, with “Data-dependent MS^n spectra were acquired in an automated fashion at 15,000 resolving power using CID and HCD fragmentation with normalized collision energy settings of 28 and 65 V, respectively.” left out

Row | SMILES | metabolite of Compound 2 observed in mouse hepatocyte incubations (mouse hepatocytes) | metabolite of Compound 2 observed in rat hepatocyte incubations (rat hepatocytes) | metabolite of Compound 2 observed in monkey hepatocyte incubations (monkey hepatocytes) | metabolite of Compound 2 observed in human hepatocyte incubations (human hepatocytes) | metabolite of Compound 2 observed in rabbit hepatocyte incubations (rabbit hepatocytes) | Relative abundance of metabolite of Compound 2, Mouse (mouse hepatocytes) | Relative abundance of metabolite of Compound 2, Rat (rat hepatocytes) | Relative abundance of metabolite of Compound 2, Rabbit (rabbit hepatocytes) | Relative abundance of metabolite of Compound 2, Hepatopack [1] | Relative abundance of metabolite of Compound 2, Monkey (monkey hepatocytes) | Relative abundance of metabolite of Compound 2, Human (human hepatocytes)
1 | C[C@]1(c2ccc(Cl)cn2)Oc2cccc(C3CCN(Cc4nc5ccc(C(=O)O)cc5[nH]4)CC3)c2O1 [Metabolite 505, (S)-2-((4-(2-(5-chloropyridin-2-yl)-2-methylbenzo[d][1,3]dioxol-4-yl)piperidin-1-yl)methyl)-1H-benzo[d]imidazole-6-carboxylic acid] | observed | observed | – | – | observed | trace | trace | * | – | – | –
2 | C[C@]1(c2ccc(Cl)cn2)Oc2cccc(C3=CCN(Cc4nc5ccc(C(=O)O)cc5n4C[C@@H]4CCO4)CC3)c2O1 [Metabolite 573a] | low-level metabolite | low-level metabolite | low-level metabolite | low-level metabolite | low-level metabolite | – | – | – | – | – | –

More lines, now with the values ahead:

Row | metabolite of Compound 2 observed in mouse hepatocyte incubations (mouse hepatocytes) | metabolite of Compound 2 observed in rat hepatocyte incubations (rat hepatocytes) | metabolite of Compound 2 observed in monkey hepatocyte incubations (monkey hepatocytes) | metabolite of Compound 2 observed in human hepatocyte incubations (human hepatocytes) | metabolite of Compound 2 observed in rabbit hepatocyte incubations (rabbit hepatocytes) | Relative abundance of metabolite of Compound 2, Mouse (mouse hepatocytes) | Relative abundance of metabolite of Compound 2, Rat (rat hepatocytes) | Relative abundance of metabolite of Compound 2, Rabbit (rabbit hepatocytes) | Relative abundance of metabolite of Compound 2, Hepatopack [1] | Relative abundance of metabolite of Compound 2, Monkey (monkey hepatocytes) | Relative abundance of metabolite of Compound 2, Human (human hepatocytes) | SMILES
3 | observed in all hepatocyte incubations | observed in all hepatocyte incubations | observed in all hepatocyte incubations | observed in all hepatocyte incubations | observed in all hepatocyte incubations | – | – | – | – | – | – | C[C@]1(c2ccc(Cl)cn2)Oc2cccc(C3CC[N+]([O-])(Cc4nc5ccc(C(=O)O)cc5n4C[C@@H]4CCO4)CC3)c2O1 (some centres unmarked) [Metabolite 591d]
4 | observed in all hepatocyte incubations | observed in all hepatocyte incubations | observed in all hepatocyte incubations | observed in all hepatocyte incubations | observed in all hepatocyte incubations | + | trace | + | + | trace | + | C[C@]1(c2ccc(Cl)cn2)Oc2cccc(-c3cc[n+](Cc4nc5ccc(C(=O)O)cc5n4C[C@@H]4CCO4)cc3)c2O1 [Metabolite 569]
5 | observed in all hepatocyte incubations | observed in all hepatocyte incubations | observed in all hepatocyte incubations | observed in all hepatocyte incubations | observed in all hepatocyte incubations | + | trace | +++ | ** | + | ** | C[C@]1(c2ccc(Cl)cn2)Oc2cccc(C3CCN(Cc4nc5ccc(C(=O)O)cc5n4CC(O)CCO)CC3)c2O1 (stereo in doubt) [Metabolite 593]
6 | – | trace metabolite | trace metabolite | trace metabolite | – | – | trace | – | – | trace | trace | O=C(O)c1ccc2nc(CN3CCC(c4cccc(O)c4O)CC3)n(C[C@@H]3CCO3)c2c1 [Metabolite 438, (S)-2-((4-(2,3-dihydroxyphenyl)piperidin-1-yl)methyl)-1-(oxetan-2-ylmethyl)-1H-benzo[d]imidazole-6-carboxylic acid]
